Reference: patent US9085576B2 (AMGEN INC., priority 2013, dated 2015)
Structures can show the parent of a compound that is named as a salt. Where two headings read alike, the source gives them in different places.

Tests used:
Cathepsin D (Cat D) = Cathepsin D (Cat D) (Homo sapiens (Human), UniProt P07339); experiment: In vitro enzymatic Cathepsin D (Cat D) FRET assay; assay type: biochemical
Abeta 40 = experiment: In vivo inhibition of beta-secretase: Abeta 40 reduction in CSF and brain of the rat; details: after 4 hrs; for % reduction of rat CSF levels at 10 pmk / % reduction of rat CSF levels (3 mpk): Abeta 40 in rat CSF; for % reduction of rat CSF levels at 10 pmk / % reduction of rat brain levels at 10 mpk: 10 mpk; for % reduction of rat brain levels at 10 mpk / % reduction of rat brain levels (3 mpk): Abeta 40 in rat brain
[1] = biological target: Beta Secretase enzyme (BACE) (Homo sapiens (Human), UniProt P56817); experiment: In vitro enzymatic BACE FRET assay; assay type: biochemical; details: read-out: BACE1 Enzyme assay IC50
Sequence of Beta Secretase enzyme (BACE) (P56817 46-501): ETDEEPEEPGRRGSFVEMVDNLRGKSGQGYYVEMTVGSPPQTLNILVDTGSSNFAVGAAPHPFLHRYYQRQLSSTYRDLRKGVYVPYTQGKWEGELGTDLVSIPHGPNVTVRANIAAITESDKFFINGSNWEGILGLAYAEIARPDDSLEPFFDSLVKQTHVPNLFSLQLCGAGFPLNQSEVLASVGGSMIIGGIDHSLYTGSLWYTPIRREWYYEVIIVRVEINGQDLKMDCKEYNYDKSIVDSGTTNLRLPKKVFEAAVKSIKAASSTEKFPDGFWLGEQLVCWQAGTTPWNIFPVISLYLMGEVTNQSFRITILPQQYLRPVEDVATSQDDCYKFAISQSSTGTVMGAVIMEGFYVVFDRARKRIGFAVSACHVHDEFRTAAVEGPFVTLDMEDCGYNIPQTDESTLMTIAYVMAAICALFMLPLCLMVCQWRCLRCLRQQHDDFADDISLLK

BACE = BACE (Homo sapiens (Human), UniProt P56817); experiment: In vitro BACE cell-based assay (Aβ40 in conditioned medium, sandwich ELISA)
Sequence of BACE (P56817 46-501, species assumed): as the sequence (P56817 46-501) above

Sequence of Cathepsin D (Cat D) (P07339 65-412, species assumed): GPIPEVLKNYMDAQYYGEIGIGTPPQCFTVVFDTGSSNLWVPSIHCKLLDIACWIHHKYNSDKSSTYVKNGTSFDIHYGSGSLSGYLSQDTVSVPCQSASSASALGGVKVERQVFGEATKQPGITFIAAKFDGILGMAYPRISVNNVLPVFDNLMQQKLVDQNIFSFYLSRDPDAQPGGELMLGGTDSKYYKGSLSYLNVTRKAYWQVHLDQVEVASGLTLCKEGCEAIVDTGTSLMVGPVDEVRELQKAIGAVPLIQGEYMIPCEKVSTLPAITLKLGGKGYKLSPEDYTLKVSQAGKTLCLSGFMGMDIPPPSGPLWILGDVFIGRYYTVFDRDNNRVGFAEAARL

Row | SMILES | IC50 (Cathepsin D (Cat D); Cat D FRET assay, first procedure, read-out: Cat D IC50) [µM] | IC50 (Cathepsin D (Cat D); read-out: CatD IC50) [µM] | IC50 [1] [µM] | IC50 (BACE) [µM] | % reduction of rat CSF levels at 10 pmk (Abeta 40) [%] | % reduction of rat brain levels at 10 mpk (Abeta 40) [%] | % reduction of rat CSF levels (3 mpk) (Abeta 40) | % reduction of rat brain levels (3 mpk) (Abeta 40)
1 | Cc1cc(C#N)cnc1C(=O)Nc1ccc(F)c([C@@]2(C(F)F)N=C(N)O[C@@H]3C[C@@H]32)c1 [Example 44, N-(3-((1R,5S,6R)-3-amino-5-(difluoromethyl)-2-oxa-4-azabicyclo[4.1.0]hept-3-en-5-yl)-4-fluorophenyl)-5-cyano-3-methylpicolinamide] | – | 376 | 0.0142 | 0.017 | 80 | 73 | 69 (3 mpk) % | 52 (3 mpk) %
2 | COc1cc(C#N)cnc1C(=O)Nc1ccc(F)c([C@@]2(C(F)F)N=C(N)O[C@@H]3C[C@@H]32)c1 [Example 45, N-(3-((1R,5S,6R)-3-amino-5-(difluoromethyl)-2-oxa-4-azabicyclo[4.1.0]hept-3-en-5-yl)-4-fluorophenyl)-5-cyano-3-methoxypicolinamide] | – | 3450 | 0.0555 | 0.0372 | 31 | 6 | – | –
3 | COc1cnc(C(=O)Nc2ccc(F)c([C@@]3(C(F)F)N=C(N)O[C@@H]4C[C@@H]43)c2)c(Cl)c1 [Example 70, N-(3-((1R,5S,6R)-3-amino-5-(difluoromethyl)-2-oxa-4-azabicyclo[4.1.0]hept-3-en-5-yl)-4-fluorophenyl)-3-chloro-5-methoxypicolinamide] | – | 379 | 0.0568 | 0.0386 | 65 | 51 | – | –
4 | NC1=N[C@](CF)(c2cc(NC(=O)c3cnc(OCC(F)(F)F)cn3)cc(Cl)c2F)[C@H]2C[C@H]2O1 [Example 90, N-(3-((1R,5S,6R)-3-amino-5-(fluoromethyl)-2-oxa-4-azabicyclo[4.1.0]hept-3-en-5-yl)-5-chloro-4-fluorophenyl)-5-(2,2,2-trifluoroethoxy)pyrazine-2-carboxamide] | – | 913 | 0.0136 | 0.0213 | 48 | 31 | – | –
5 | C#CCOc1cnc(C(=O)Nc2ccc(F)c([C@@]3(C(F)F)N=C(N)O[C@@H]4C[C@@H]43)c2)cn1 [Example 95, N-(3-(((1R,5S,6R)-3-amino-5-(difluoromethyl)-2-oxa-4-azabicyclo[4.1.0]hept-3-en-5-yl)-4-fluorophenyl)-5-(prop-2-yn-1-yloxy)pyrazine-2-carboxamide trifluoroacetate] | – | 143 | 0.0035 | 0.008 | 82 | 77 | – | –
6 | C#C[C@H](C)Oc1cnc(C(=O)Nc2ccc(F)c([C@@]3(C(F)F)N=C(N)O[C@@H]4C[C@@H]43)c2)cn1 [Example 162, N-(3-((1R,5S,6R)-3-amino-5-(difluoromethyl)-2-oxa-4-azabicyclo[4.1.0]hept-3-en-5-yl)-4-fluorophenyl)-5-((S)-but-3-yn-2-yloxy)pyrazine-2-carboxamide] | – | 1060 | – | – | 11 | −7 | – | –
7 | NC1=N[C@@](c2cc(NC(=O)c3nn(C(F)F)cc3Cl)ccc2F)(C(F)F)[C@H]2C[C@H]2O1 [Example 163, N-(3-((1R,5S,6R)-3-amino-5-(difluoromethyl)-2-oxa-4-azabicyclo[4.1.0]hept-3-en-5-yl)-4-fluorophenyl)-4-chloro-1-(difluoromethyl)-1H-pyrazole-3-carboxamide] | – | 464 | – | – | 33 | 14 | – | –
8 | Cc1cc(Cl)cnc1C(=O)Nc1cc(C)c(F)c([C@@]2(C(F)F)N=C(N)O[C@@H]3C[C@@H]32)c1 [Example 303, N-(3-((1R,5S,6R)-3-amino-5-(difluoromethyl)-2-oxa-4-azabicyclo[4.1.0]hept-3-en-5-yl)-4-fluoro-5-methylphenyl)-5-chloro-3-methylpicolinamide] | – | 335 | – | – | 57 | 50 | – | –

Now from value to molecule, other results behind:

Row | IC50 (Cathepsin D (Cat D); Cat D FRET assay, first procedure, read-out: Cat D IC50) [µM] | IC50 (Cathepsin D (Cat D); read-out: CatD IC50) [µM] | IC50 [1] [µM] | IC50 (BACE) [µM] | SMILES | % reduction of rat CSF levels at 10 pmk (Abeta 40) [%] | % reduction of rat brain levels at 10 mpk (Abeta 40) [%] | % reduction of rat CSF levels (3 mpk) (Abeta 40) | % reduction of rat brain levels (3 mpk) (Abeta 40)
9 | > 400 | 596 | 0.0225 | 0.0314 | Cc1cc(Cl)cnc1C(=O)Nc1ccc(F)c([C@@]2(C(F)F)N=C(N)O[C@@H]3C[C@@H]32)c1 [Example 43, N-(3-((1R,5S,6R)-3-amino-5-(difluoromethyl)-2-oxa-4-azabicyclo[4.1.0]hept-3-en-5-yl)-4-fluorophenyl)-5-chloro-3-methylpicolinamide] | 70 | 59 | – | –
10 | – | 478 | – | – | NC1=N[C@@](c2cc(NC(=O)c3ncc(Cl)cc3Cl)ccc2F)(C(F)F)[C@H]2C[C@H]2O1 [Example 71, N-(3-((1R,5S,6R)-3-amino-5-(difluoromethyl)-2-oxa-4-azabicyclo[4.1.0]hept-3-en-5-yl)-4-fluorophenyl)-3,5-dichloropicolinamide] | 80 | 73 | – | –
11 | – | 282 | 0.0247 | 0.0181 | NC1=N[C@@](c2cc(NC(=O)c3ccc(Br)cn3)ccc2F)(C(F)F)[C@H]2C[C@H]2O1 [Example 74, N-(3-((1R,5S,6R)-3-amino-5-(difluoromethyl)-2-oxa-4-azabicyclo[4.1.0]hept-3-en-5-yl)-4-fluorophenyl)-5-bromopicolinamide] | 56 | 46 | – | –
12 | – | 684 | 0.0266 | 0.0302 | NC1=N[C@@](c2cc(NC(=O)c3ccc(Cl)cn3)ccc2F)(C(F)F)[C@H]2C[C@H]2O1 [Example 76, N-(3-((1R,5S,6R)-3-amino-5-(difluoromethyl)-2-oxa-4-azabicyclo[4.1.0]hept-3-en-5-yl)-4-fluorophenyl)-5-chloropicolinamide] | 64 | 60 | – | –
13 | – | 698 | – | – | N#Cc1ccc(C(=O)Nc2ccc(F)c([C@@]3(C(F)F)N=C(N)O[C@@H]4C[C@@H]43)c2)nc1 [Example 77, N-(3-((1R,5S,6R)-3-amino-5-(difluoromethyl)-2-oxa-4-azabicyclo[4.1.0]hept-3-en-5-yl)-4-fluorophenyl)-5-cyanopicolinamide] | 78 | 71 | 66 (3 mpk) % | 46 (3 mpk) %
14 | – | 1300 | – | – | N#Cc1ccc(C(=O)Nc2ccc(Cl)c([C@@]3(C(F)F)N=C(N)O[C@@H]4C[C@@H]43)c2)nc1 [Example 93, N-(3-((1R,5S,6R)-3-amino-5-(difluoromethyl)-2-oxa-4-azabicyclo[4.1.0]hept-3-en-5-yl)-4-chlorophenyl)-5-cyanopicolinamide] | 76 | 83 | – | –
15 | – | – | – | 0.015 | NC1=N[C@@](c2cc(NC(=O)c3ncc(Br)cn3)ccc2F)(C(F)F)[C@H]2C[C@H]2O1 [Example 267, N-(3-((1R,5S,6R)-3-amino-5-(difluoromethyl)-2-oxa-4-azabicyclo[4.1.0]hept-3-en-5-yl)-4-fluorophenyl)-5-bromopyrimidine-2-carboxamide] | −1 | 11 | – | –
